Test results taken from PMC3100226 (Journal of Pain Research, 2011).

Experiments:
[1] = tested on: capsaicin-induced neurogenic/inflammatory pain in rats; test: Capsaicin-induced mechanical hyperalgesia; assay type: in vivo; conditions: rat
D2 = D2 (Rattus norvegicus, UniProt P61169); test: Receptor characterization panel: D2 binding; conditions: read-out: 10 μM CR4056 (% effect), inhibition of specific binding
PI 3-Kβ = PI 3-Kβ (Homo sapiens, UniProt P42338); test: Enzyme characterization panel: PI 3-Kβ; assay type: biochemical; conditions: data not shown
Sequence of PI 3-Kβ (P42338 whole entry, species assumed): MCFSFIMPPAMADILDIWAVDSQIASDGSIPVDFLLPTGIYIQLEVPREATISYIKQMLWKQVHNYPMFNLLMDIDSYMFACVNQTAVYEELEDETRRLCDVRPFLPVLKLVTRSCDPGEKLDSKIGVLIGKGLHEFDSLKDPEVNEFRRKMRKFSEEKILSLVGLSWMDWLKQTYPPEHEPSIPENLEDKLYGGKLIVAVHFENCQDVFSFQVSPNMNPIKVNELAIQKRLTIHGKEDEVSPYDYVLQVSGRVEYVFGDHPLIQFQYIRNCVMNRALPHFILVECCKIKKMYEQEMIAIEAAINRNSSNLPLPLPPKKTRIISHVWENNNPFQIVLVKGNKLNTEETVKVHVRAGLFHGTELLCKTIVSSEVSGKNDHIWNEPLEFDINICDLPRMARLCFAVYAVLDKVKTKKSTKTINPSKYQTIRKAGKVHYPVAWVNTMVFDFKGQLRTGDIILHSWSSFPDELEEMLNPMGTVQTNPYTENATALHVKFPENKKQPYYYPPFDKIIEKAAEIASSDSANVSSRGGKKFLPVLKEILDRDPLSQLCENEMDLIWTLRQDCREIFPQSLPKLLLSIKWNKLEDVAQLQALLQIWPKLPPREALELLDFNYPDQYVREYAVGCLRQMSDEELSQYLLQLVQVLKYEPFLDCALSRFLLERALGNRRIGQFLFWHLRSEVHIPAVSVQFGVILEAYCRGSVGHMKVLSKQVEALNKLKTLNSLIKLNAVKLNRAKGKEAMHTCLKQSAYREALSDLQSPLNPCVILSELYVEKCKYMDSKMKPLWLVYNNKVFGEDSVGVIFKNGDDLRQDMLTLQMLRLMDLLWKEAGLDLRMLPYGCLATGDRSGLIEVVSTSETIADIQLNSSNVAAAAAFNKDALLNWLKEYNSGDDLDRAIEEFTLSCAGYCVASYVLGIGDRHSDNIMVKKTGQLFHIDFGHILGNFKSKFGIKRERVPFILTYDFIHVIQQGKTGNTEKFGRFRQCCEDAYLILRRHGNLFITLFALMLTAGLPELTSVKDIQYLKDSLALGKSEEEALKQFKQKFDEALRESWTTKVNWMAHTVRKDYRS
Sequence of PI 3-Kβ (P27986 whole entry partner, species assumed): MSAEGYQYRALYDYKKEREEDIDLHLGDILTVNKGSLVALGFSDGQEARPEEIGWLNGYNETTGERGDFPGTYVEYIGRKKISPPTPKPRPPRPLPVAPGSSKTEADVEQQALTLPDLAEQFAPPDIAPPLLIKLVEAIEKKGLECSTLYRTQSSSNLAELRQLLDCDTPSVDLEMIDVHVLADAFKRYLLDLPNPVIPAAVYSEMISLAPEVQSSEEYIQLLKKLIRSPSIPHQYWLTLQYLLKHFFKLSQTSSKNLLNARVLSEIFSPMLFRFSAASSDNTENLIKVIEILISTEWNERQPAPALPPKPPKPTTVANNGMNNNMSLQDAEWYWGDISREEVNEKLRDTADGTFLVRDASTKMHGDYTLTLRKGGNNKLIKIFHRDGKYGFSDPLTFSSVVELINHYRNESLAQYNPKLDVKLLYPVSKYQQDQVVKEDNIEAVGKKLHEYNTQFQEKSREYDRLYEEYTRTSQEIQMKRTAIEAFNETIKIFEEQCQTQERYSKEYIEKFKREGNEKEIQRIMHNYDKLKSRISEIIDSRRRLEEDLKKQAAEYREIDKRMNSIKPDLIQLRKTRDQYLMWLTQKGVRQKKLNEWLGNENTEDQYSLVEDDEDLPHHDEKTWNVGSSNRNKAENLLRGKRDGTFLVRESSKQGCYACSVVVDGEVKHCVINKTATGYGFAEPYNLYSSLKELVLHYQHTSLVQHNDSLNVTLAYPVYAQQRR

MAO-B = molecular target: T1, MAO-B (Rattus norvegicus, UniProt P19643); test: MAO-B binding
T1 sequence (P19643 1-520): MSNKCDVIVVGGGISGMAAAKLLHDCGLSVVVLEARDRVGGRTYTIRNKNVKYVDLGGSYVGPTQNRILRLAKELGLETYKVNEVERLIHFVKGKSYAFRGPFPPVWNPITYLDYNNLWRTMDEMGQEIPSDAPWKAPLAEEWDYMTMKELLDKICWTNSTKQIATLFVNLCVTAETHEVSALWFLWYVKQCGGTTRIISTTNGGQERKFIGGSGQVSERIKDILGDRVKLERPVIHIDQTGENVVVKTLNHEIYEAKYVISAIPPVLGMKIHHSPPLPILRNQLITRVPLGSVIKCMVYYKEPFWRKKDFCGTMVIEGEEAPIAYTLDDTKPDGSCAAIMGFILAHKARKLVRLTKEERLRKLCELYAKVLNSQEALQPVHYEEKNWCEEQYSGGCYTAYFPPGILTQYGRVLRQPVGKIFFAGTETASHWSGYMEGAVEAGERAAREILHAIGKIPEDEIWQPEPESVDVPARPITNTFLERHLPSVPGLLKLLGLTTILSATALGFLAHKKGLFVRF

[2] = tested on: STZ-induced diabetic pain in rats; test: Streptozotocin-induced neuropathic; assay type: in vivo; conditions: rat, 60 mg/kg oral
human mTOR kinase = human mTOR kinase (Homo sapiens, UniProt P42345); test: Enzyme characterization panel: mTOR kinase; assay type: biochemical; conditions: data not shown
Sigma (σ1 + σ2) = test: Receptor characterization panel: sigma binding; conditions: [3H]DTG, whole brain/rat
imidazoline I2 receptor = test: [3H]2-BFI binding to imidazoline I2 receptors in rat whole-brain membranes; conditions: read-out: IC50, nM, [3H]2-BFI binding to the imidazoline I2 receptor; Table S2; rat whole brain membranes, […] [3H]2-BFI, 90 minutes at 25°C; mean ± SEM
PI 3-Kγ = PI 3-Kγ (Homo sapiens, UniProt P48736); test: Enzyme characterization panel: PI 3-Kγ; assay type: biochemical; conditions: data not shown
Sequence of PI 3-Kγ (P48736 whole entry, species assumed): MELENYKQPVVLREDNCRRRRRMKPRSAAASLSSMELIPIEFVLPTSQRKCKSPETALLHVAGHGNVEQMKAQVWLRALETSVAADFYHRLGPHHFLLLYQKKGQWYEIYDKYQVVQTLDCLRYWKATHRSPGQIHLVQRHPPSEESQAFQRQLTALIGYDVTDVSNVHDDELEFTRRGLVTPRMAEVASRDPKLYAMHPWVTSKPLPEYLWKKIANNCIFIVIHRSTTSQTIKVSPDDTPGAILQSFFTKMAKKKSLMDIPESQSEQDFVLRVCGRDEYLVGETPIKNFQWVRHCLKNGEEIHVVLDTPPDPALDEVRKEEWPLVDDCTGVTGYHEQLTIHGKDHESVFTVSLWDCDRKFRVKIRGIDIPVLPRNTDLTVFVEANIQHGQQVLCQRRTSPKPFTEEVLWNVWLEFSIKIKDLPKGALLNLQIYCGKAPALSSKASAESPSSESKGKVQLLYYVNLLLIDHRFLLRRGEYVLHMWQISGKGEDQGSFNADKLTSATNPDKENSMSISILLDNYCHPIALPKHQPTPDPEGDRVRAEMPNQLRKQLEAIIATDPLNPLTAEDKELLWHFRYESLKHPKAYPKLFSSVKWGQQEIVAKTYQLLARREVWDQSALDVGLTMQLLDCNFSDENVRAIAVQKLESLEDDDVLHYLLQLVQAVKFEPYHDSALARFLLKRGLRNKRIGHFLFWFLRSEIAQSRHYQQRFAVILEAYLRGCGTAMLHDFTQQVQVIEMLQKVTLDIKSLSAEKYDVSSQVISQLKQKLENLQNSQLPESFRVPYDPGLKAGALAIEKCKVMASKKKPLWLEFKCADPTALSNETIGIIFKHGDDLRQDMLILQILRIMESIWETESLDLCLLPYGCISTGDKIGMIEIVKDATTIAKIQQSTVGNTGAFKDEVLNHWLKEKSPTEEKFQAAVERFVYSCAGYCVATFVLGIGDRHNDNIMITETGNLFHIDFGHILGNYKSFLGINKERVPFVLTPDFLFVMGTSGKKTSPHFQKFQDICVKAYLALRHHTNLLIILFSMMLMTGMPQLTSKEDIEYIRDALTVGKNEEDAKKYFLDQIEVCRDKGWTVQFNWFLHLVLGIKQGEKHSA

D1 = D1 (Rattus norvegicus, UniProt P18901); test: Receptor characterization panel: D1 binding; conditions: read-out: 10 μM CR4056 (% effect), inhibition of specific binding
Sequence of D1 (P18901 whole entry): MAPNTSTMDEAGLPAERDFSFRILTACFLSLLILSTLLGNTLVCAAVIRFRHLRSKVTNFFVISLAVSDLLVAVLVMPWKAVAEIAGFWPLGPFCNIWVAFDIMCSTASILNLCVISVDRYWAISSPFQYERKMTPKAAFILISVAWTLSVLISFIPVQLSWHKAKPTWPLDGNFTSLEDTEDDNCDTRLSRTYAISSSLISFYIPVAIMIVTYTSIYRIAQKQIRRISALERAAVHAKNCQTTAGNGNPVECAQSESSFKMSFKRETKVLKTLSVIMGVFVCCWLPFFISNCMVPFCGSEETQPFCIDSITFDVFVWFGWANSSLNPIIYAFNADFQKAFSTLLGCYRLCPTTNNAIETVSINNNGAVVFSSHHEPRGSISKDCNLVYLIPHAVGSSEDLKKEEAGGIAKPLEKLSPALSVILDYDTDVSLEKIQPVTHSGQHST

[3] = tested on: neuromuscular coordination of rats; test: Rotarod test; assay type: in vivo; conditions: rat; oral 3–30 mg/kg
human recombinant MAO-A = human recombinant MAO-A (Homo sapiens, UniProt P21397); test: Human recombinant MAO-A functional assay; assay type: biochemical
Sequence of human recombinant MAO-A (P21397 whole entry): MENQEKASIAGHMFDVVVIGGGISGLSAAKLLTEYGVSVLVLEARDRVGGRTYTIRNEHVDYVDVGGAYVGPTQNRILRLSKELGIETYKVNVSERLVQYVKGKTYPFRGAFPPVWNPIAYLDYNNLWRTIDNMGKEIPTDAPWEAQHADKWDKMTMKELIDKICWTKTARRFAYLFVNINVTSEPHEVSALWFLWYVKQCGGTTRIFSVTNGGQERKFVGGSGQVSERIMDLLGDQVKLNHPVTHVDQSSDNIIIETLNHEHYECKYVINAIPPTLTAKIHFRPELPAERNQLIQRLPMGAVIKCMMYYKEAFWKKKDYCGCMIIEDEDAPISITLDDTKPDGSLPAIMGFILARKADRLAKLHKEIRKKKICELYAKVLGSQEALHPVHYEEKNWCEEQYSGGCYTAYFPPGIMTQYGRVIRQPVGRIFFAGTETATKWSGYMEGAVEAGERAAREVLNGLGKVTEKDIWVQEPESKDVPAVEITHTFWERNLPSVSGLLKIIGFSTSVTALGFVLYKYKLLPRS

rats = test: Diuretic effect in rats; assay type: in vivo, rat; conditions: pharmacological/toxicological dose range
conscious rat = test: Safety pharmacology, respiratory, conscious rat; assay type: in vivo; conditions: supra-pharmacological doses

Sequence of D2 (P61169 whole entry): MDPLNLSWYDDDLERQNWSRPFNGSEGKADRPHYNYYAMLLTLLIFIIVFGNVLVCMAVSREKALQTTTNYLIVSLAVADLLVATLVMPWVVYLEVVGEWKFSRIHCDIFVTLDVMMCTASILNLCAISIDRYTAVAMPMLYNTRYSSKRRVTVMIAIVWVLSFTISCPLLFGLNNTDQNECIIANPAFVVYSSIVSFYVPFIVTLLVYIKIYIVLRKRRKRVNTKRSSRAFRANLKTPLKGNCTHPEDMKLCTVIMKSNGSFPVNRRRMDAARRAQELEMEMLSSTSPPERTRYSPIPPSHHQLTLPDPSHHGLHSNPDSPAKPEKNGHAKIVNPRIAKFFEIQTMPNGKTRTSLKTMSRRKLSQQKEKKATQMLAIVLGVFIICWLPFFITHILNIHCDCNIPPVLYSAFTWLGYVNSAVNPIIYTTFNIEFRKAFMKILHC

c1ccc(-c2ncc3cc(-n4ccnc4)ccc3n2)cc1 [CR4056, 2-phenyl-6-(1H-imidazol-1yl)quinazoline]
Reversal of the decrease in withdrawal threshold caused by capsaicin ([1]; 10 mg/kg oral, P < 0.001 versus vehicle): significantly reversed
Reversal of the effect of capsaicin ([1]; 30 mg/kg oral): completely reversed
ED50, capsaicin-induced mechanical hyperalgesia, CR4056 alone ([1]; p.o.): 4.13 mg/kg
ED100, capsaicin-induced mechanical hyperalgesia ([1]; p.o.): 17.9 mg/kg
inhibition at 10 µM (D2): 25%
Activity in enzyme characterization panel (PI 3-Kβ): inactive
Concentrations for inhibition of MAO-B specific binding relative to MAO-A (MAO-B; rat cerebral membranes, [3H]Ro 19-6327 15 nM): two orders of magnitude higher
inhibition at 10 µM (MAO-B; read-out: 10 μM CR4056 (% effect), inhibition of specific binding): 35%
Decrease of total STZ-induced hyperalgesic effect, AUC analysis (0–6 hours) [2]: 84%
Reduction of mechanical hyperalgesia at 6 hours post-dosing [2]: 58%
Reversal of STZ-induced mechanical hyperalgesia ([2]; within 30 minutes): completely reversed
Activity in enzyme characterization panel (human mTOR kinase): inactive
10 μM CR4056 (% effect), inhibition of specific binding (Sigma (σ1 + σ2)): 18%
IC50 (imidazoline I2 receptor): 596 ± 76 nM
Activity in enzyme characterization panel (PI 3-Kγ): inactive
inhibition at 10 µM (D1): 19%
Performance in rotarod test [3]: did not cause a deterioration
IC50 (human recombinant MAO-A): 203 ± 10.3 nM
Diuretic effect (rats): dose-dependent diuretic effect
Respiratory effects (conscious rat): tachypnea associated with a respiratory stimulant effect
